# Measured values as given in patent EP0089939A1, “Compositions for therapeutic or diagnostic use containing oligosaccharides” (BioCarp AB, priority 1982, dated 1983).
# Legend:
# N.meningitidis = test: Inhibition of adherence of N. meningitidis to buccal mucosa cells; type: cell-based; settings: human buccal mucosa cells, N.meningitidis strain 3K, 45 min
# Experimental: (§1) Procedure: 1 ml of […] containing 0 of (1), 5 mg/ml of (1) and 0.5 mg/ml of (1) and 5 mg/ml of (2), respectively, were incubated with 0.5 ml bacterial suspension at 37°C for 30 minutes. Vaginal cells (1 ml) were incubated with the above preincubated bacterial suspensions at 37°C for 45 minutes. The incubated suspensions were filtered through a filter (pore size 12 µ) and washed 3 times with PBS. The filter was pressed against microscope slides for a few seconds, the microscope slides being then fixed in methanol for 10 minutes. The microscope slides were dried in air and coloured with acridine orange for 2 minutes. After washing and drying in air the slides were studied by means of fluorescence microscopy. The number of bacteria adhering per cell was counted. In each test 50 vaginal cells were counted.
# The procedure of EXAMPLE 2 was repeated but in this case cells were collected from young healthy women by scraping the Buccal Mucosae with a wooden spatula. The bacterium used was N.meningitidis, international test strain 3K, Statens Seruminstitut, Copenhagen, Denmark.
# N.gonorrhoeae [1] = test: Inhibition of adherence of N. gonorrhoeae to vaginal cells; type: cell-based; settings: human vaginal cells, 50 cells counted; for reduction of the number of adhering bacteria: 5 mg/ml oligosaccharide
# Experimental: Cells: Vaginal cells from healthy women in fertile age not having used hormonal preparations and werein proliferation phase were tested. Cells were collected from rear vaginal fornix with a wooden spatula and suspended in RPMI 1640 in a concentration of 10^5 cells/ml.
# Gonococci: International reference strain 3 from Neisseriaavd. Statens Seruminstitut, Copenhagen, Denmark, suspended in cell cultivation medaium RPMI 1640 (Flow Ltd.) in a concentration of 10^9 bacteria/ml.
# Oligosaccharides: β-D-Galp-(1-3)- -D-GalNAc-(1-0)-Me (1) β-D-Galp-(1-3)- -D-GalNAc-(1-0)-Me (2)
# as §1
# N.gonorrhoeae [2] = test: Inhibition of haemagglutination of human erythrocytes by N. gonorrhoeae; type: cell-based; settings: Neisseria gonorrhoeae, Erythrocyte; human erythrocytes (O1Rh+); fimbriated N.gonorrhoeae; read after 2-4 hours at room temperature; read-out: Minimum concentration of inhibitor resulting in complete inhibition
# Experimental: (§2) In the test there is used a strain of N. gonorrhoeae (international reference strain 3 from Neisseriaavd. Statens seruminstitutt, Copenhagen, Denmark. and a fresh strain of the same species isolated at the Bacteriological Central Laboratory, Lunds Hospital, Lund, Sweden). The bacteria were cultivated on a special gonococc medium, see Mardh, P.A., Martensson, D, Soltesz, L.V. "An effective, simplified medium for the culture of N. gonorrhoeae". Sex.Trans.Dis. Vol. 5, pp. 10-13, 1978, at + 37°C for 18 hours. The bacterial culture was slurried in PBS, pH 7.2 to a density of 109 bacteria/ml.
# (§3) Haemagglutination was performed using erythrocytes from sheep or man (O1Rh+) which were washed with PBS and suspended to a concentration of 1 % v/w in PBS, pH 7.2. The agglutination tests were-performed so that 25 µl of the bacterial suspension was titrated in PBS by using two-fold […] steps. Then 25 µl of the erythrocyte suspension which had been made 1 % were added. The haemagglutination titre (Hu) was determined after incubating the plates (microtitre plates, Limbo Sc. Comp. Inc.) for 2-4 hours in room temperature.
# (§4) In the haemagglutination-inhibition tests there were used serial dilutions having the relevant inhibitor (50 µl/well) and […] bacterial suspension diluted to contain twice the lowest haemagglutination titre. The plates were incubated for 30 minutes at +37°C, 25 µl of erythrocyte suspension being then added to each well. The result was read after 2-4 hours incubation at room temperature.
# N. gonorrhoeae = test: Inhibition of haemagglutination of sheep erythrocytes by N. gonorrhoeae; type: cell-based; settings: Neisseria gonorrhoeae, Erythrocyte, fimbriated N. gonorrhoeae, read after 2-4 hours at room temperature, read-out: Minimum concentration of inhibitor resulting in complete inhibition of haemagglutination
# Experimental: as §2, §3, §4
# N.gonorrhoeae [3] = test: Disinfection: removal of bacteria from an infected surface; settings: 0.1 percent by weight aqueous solution applied with a cotton pad
# Experimental: By disinfection is here primarily intended removal of bacteria from a surface, for example a wound.
# A 0.1 percent by weight aqueous solution of the compound β-D-Galp-(1-4)-D-GNAc is prepared and applied by means of a cotton pad onto a surface infected by N.gonorrhoeae.
smiles,measurement,setting,value
"COC1O[C@H](CO)[C@H](O)[C@H](O[C@@H]2O[C@H](CO)[C@H](O)[C@H](O)[C@H]2O)[C@H]1NC(C)=O (stereo partly drawn) [(1), β-D-Galp-(1-3)- -D-GalNAc-(1-0)-Me]",reduction of the number of adhering bacteria,N.meningitidis; 0.5 mg/ml oligosaccharide,about 15%
same,reduction of the number of adhering bacteria,N.meningitidis; 5 mg/ml oligosaccharide,90%
same,effect on adherence,N.gonorrhoeae [1]; 0.5 mg/ml oligosaccharide,did not significantly effect adherence
same,reduction of the number of adhering bacteria,N.gonorrhoeae [1]; 45 min,87
"COC1O[C@H](CO)[C@H](O)[C@H](O[C@@H]2O[C@H](CO)[C@H](O)[C@H](O)[C@H]2O)[C@H]1NC(C)=O (stereo partly drawn) [(2), β-D-Galp-(1-3)- -D-GalNAc-(1-0)-Me]",reduction of the number of adhering bacteria,N.gonorrhoeae [1],did not significantly effect adherence
CC(=O)N[C@H]1[C@H](O[C@H]2[C@@H](O)[C@@H](CO)O[C@H](O[C@@H]3[C@H](O)[C@@H](O)[C@H](O[C@H]4[C@H](O)[C@@H](O)C(O)O[C@@H]4CO)O[C@@H]3CO)[C@@H]2O)O[C@H](CO)[C@H](O)[C@@H]1O (stereo partly drawn) [β-D-GalNAc-(1-3)-α-D-Galp-(1-4) -β-D-Galp-(1-4)-D-Glc],minimal effective concentration,N.gonorrhoeae [2],> 5000 µg/mL
CC(=O)N[C@H]1C(O)O[C@H](CO)[C@H](O)[C@@H]1O[C@@H]1O[C@H](CO)[C@H](O)[C@H](O)[C@H]1O (stereo partly drawn) [β-D-Galp-(1-3)-D-GalNAc],minimal effective concentration,N.gonorrhoeae [2],800 µg/mL
same,minimal effective concentration,N. gonorrhoeae,900 µg/mL
OC[C@H]1O[C@@H](O[C@H]2[C@@H](O)[C@@H](CO)OC(O)[C@@H]2O)[C@H](O)[C@@H](O)[C@H]1O (stereo partly drawn) [β-D-Galp-(1-3)-D-Gal],minimal effective concentration,N.gonorrhoeae [2],> 5000 µg/mL
CO[C@H]1O[C@H](CO)[C@H](O)[C@H](O[C@@H]2O[C@H](CO)[C@H](O)[C@H](O)[C@H]2O)[C@H]1NC(C)=O [β-D-Galp-(1-3)-α-D-GalNAc-(1-O)Me],minimal effective concentration,N. gonorrhoeae,150 µg/mL
"CO[C@H]1O[C@H](CO)[C@H](O)[C@H](O[C@@H]2O[C@H](CO)[C@H](O)[C@H](O)[C@H]2O)[C@H]1NC(C)=O [β-D-Galp-(1-3)-α-D-GalNAcp-(1-O)Me, Methyl 2-acetamido-2-deoxy-3-0-(β-D-galactopyranosyl)-a--D-galactopyranoside]",minimal effective concentration,N.gonorrhoeae [2],200 µg/mL
CO[C@@H]1O[C@H](CO)[C@H](O)[C@H](O[C@@H]2O[C@H](CO)[C@H](O)[C@H](O)[C@H]2O)[C@H]1NC(C)=O [β-D-Galp-(1-3)-β-D-GalNAc-(1-O)Me],minimal effective concentration,N. gonorrhoeae,> 2000 µg/mL
"CO[C@@H]1O[C@H](CO)[C@H](O)[C@H](O[C@@H]2O[C@H](CO)[C@H](O)[C@H](O)[C@H]2O)[C@H]1NC(C)=O [β-D-Galp-(1-3)-β-D-GalNAcp-(1-O)Me, Methyl 2-acetamido-2-deoxy-3-0-(B-D-galaetopyranosyl)--β-D-galactopyranoside]",minimal effective concentration,N.gonorrhoeae [2],> 2000 µg/mL
CC(=O)N[C@H]1C(O)O[C@H](CO)[C@@H](O[C@@H]2O[C@H](CO)[C@H](O)[C@H](O)[C@H]2O)[C@@H]1O (stereo partly drawn) [β-D-Galp-(1-4)-D-GNAc],removal of the bacterium from the surface,N.gonorrhoeae [3],effective removal of the bacterium from the surface
OC[C@H]1O[C@@H](O[C@H]2[C@H](O)[C@@H](O)C(O)O[C@@H]2CO)[C@H](O)[C@@H](O)[C@H]1O (stereo partly drawn) [β-D-Galp-(1-4)-D-Glc],minimal effective concentration,N.gonorrhoeae [2],> 5000 µg/mL
OC[C@H]1O[C@@H](OC[C@H]2OC(O)[C@H](O)[C@@H](O)[C@@H]2O)[C@H](O)[C@@H](O)[C@H]1O (stereo partly drawn) [β-D-Galp-(1-6)-D-Glc],minimal effective concentration,N.gonorrhoeae [2],> 5000 µg/mL
